In US11857535B2, “Methods of treating mutant lymphomas” (Kymera Therapeutics, Inc., priority 2020, dated 2024):
Read-outs that look alike come from different tables or passages of the source.

Test: 7.2 Pharmacokinetic and tolerability characterization, intravenous bolus, cynomolgus monkeys
Settings: cynomolgus monkey, in vivo, IV dosing in NHP
Source text: 7.2 Pharmacokinetic and Tolerability Characterization following Intravenous Bolus Administration to Male and Female Cynomolgus Monkeys
The objective of this study is to determine the pharmacokinetics and tolerability of Compound A following intravenous bolus administrations of Compound A on a single day or two consecutive days in male and female cynomolgus monkeys. The test article will be measured in plasma at selected time points for up to 14 days post dosing.
Purpose: To prepare a 20 mgA/mL solution of 20%:80% Compound A:HPBCD SDD in an aqueous vehicle comprised of 5 wt % TPGS in 0.1 M Acetate suitable for IV dosing in NHP. […]
Bioanalytical method development and sample analysis • LC-MS/MS method development: • 1. A LC-MS/MS method for the quantitative determination of test compound in biological matrix will be developed under non-GLP compliance. • 2. […] N in 1 cassette LC-MS/MS method can be developed for samples coming from different studies as long as these studies belong to same sponsor and the interference among all cassette analytes will be evaluated during the method development. • 5. […] If such kind cassette assay is still requested by the study sponsor, interference between analytes will not be evaluated but the LC separation of those analytes by using a generic method will be tried. […]

SMILES: CC(C)(O)c1cc2nc([C@H]3CC[C@H](CN4CC5(CC(CCNc6cccc7c6C(=O)N(C6CCC(=O)NC6=O)C7=O)C5)C4)CC3)sc2cc1NC(=O)c1cccc(C(F)(F)F)n1 (some centres unmarked) [Compound A, N-(2-((1r,4r)-4-((6-(2-((2-(2,6-dioxopiperidin-3-yl)-1,3-dioxoisoindolin-4-yl)amino)ethyl)-2-azaspiro[3.3]heptan-2-yl)methyl)cyclohexyl)-5-(2-hydroxypropan-2-yl)benzo[d]thiazol-6-yl)-6-(trifluoromethyl)picolinamide]
- target exposure range AUC0-168 (schedule D1, 2, read-out: Target exposure Range (Ly10-DHL2) AUC0-168): 12 to 36 µM·h
- target exposure range AUC0-168 (schedule D1, read-out: Target exposure Range (Ly10-DHL2) AUC0-168): 24 to 72 µM·h
